Active and inactive are the calls of the source.
Legend:
Type in all cases: functional
[1] = biological target: T1, Replicative DNA helicase DnaB (Mycobacterium tuberculosis, UniProt P9WMR3); assay: DnaB intein splicing inhibitors, dose response, biochemical, cell-free fluorescence (AID 449749)
T1 sequence (P9WMR3 whole entry): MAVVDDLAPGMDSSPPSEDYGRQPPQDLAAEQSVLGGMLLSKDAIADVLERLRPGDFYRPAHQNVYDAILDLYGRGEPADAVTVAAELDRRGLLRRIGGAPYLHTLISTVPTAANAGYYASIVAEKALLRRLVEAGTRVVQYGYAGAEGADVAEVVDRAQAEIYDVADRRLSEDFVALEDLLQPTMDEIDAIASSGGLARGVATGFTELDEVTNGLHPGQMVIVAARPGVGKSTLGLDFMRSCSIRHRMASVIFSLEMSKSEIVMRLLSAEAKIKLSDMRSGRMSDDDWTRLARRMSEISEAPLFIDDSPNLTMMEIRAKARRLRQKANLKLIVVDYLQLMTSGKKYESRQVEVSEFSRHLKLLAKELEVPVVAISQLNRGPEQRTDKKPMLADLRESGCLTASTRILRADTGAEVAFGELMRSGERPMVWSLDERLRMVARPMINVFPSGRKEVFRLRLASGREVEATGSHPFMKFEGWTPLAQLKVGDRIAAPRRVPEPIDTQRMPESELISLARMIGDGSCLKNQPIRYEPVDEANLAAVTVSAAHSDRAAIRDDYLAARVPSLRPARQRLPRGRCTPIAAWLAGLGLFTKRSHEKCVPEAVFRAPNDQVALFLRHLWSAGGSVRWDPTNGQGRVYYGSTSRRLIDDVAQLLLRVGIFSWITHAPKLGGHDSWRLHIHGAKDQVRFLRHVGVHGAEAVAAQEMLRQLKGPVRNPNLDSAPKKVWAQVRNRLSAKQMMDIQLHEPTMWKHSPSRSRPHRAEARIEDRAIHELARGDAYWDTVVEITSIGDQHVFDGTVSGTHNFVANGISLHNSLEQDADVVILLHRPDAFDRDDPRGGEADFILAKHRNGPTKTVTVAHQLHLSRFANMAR

[2] = biological target: T2, Apoptotic protease-activating factor 1 (Homo sapiens, UniProt O14727)
T2 sequence (O14727 whole entry): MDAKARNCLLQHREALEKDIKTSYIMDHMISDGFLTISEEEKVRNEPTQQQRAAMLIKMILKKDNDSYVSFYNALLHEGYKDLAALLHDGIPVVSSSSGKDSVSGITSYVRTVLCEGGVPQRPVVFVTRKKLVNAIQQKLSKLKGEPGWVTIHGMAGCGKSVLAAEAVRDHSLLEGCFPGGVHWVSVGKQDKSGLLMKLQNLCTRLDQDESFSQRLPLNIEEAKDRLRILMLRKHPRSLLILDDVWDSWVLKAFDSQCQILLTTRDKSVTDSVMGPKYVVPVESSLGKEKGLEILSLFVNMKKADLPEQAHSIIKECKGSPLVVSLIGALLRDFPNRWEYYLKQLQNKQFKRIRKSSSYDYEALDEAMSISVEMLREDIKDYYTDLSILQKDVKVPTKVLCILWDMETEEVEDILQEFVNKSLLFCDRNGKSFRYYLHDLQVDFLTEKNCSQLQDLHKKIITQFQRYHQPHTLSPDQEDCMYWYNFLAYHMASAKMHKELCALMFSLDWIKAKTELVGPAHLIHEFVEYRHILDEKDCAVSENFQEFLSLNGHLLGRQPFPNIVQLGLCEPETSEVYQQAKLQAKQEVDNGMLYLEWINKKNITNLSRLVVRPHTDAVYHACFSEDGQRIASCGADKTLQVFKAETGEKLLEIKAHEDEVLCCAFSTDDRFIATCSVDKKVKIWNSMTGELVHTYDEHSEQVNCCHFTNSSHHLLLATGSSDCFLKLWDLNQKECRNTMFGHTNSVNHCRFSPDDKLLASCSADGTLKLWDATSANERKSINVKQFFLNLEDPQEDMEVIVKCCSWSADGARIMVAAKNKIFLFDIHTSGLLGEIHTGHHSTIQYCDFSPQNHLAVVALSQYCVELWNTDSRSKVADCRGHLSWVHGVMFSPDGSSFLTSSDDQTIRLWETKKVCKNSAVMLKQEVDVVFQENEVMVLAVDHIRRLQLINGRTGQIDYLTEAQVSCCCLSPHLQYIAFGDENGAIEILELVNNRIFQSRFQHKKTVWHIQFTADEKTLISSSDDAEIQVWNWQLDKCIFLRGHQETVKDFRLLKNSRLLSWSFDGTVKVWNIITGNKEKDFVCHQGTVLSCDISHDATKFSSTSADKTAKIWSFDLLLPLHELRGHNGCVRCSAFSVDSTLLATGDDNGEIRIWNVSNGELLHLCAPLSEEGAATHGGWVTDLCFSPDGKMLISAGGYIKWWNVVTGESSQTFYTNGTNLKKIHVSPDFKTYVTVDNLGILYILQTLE

[3] = biological target: T2, Apoptotic protease-activating factor 1; assay: activation of Apaf-1 mediated apoptosis – fluorescent, uHTS hits, dose response (AID 588554)
[4] = biological target: T3, Tyrosine-protein phosphatase non-receptor type 22 (Homo sapiens, UniProt Q9Y2R2);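 further: confirmatory dose-response retest of primary uHTS hits for inhibition of LYP phosphatase, measured by a fluorescence intensity read-out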
T3 sequence (Q9Y2R2 whole entry): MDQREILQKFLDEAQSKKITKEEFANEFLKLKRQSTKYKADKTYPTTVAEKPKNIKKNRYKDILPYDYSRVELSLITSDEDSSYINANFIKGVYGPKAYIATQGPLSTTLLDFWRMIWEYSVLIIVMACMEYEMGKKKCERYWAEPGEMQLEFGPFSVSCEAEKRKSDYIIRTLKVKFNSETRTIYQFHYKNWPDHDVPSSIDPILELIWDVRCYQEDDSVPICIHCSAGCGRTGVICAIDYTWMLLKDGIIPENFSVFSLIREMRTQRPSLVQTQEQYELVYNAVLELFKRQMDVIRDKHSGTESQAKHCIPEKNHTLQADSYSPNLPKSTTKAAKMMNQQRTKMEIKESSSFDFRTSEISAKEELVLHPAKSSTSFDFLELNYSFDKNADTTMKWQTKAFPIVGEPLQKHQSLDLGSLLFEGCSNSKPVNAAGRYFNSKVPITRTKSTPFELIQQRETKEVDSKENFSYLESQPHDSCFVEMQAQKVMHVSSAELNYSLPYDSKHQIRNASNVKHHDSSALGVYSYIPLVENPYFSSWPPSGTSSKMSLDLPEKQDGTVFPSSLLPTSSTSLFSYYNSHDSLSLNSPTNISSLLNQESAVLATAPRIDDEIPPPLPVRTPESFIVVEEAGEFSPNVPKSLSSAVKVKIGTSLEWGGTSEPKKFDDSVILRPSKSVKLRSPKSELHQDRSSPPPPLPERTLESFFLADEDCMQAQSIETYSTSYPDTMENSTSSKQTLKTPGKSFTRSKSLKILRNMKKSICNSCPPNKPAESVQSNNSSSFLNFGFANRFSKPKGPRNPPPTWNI

Row | SMILES | AC50 [1] | IC50 [2] | EC50 [3] | IC50 [4]
1 | COc1ccc(Nc2ccc3c(c2)=NC2(CCCCC2)[N+]=3[O-])cc1 | 9.3 µM (active) | 12.2 µM (active) | – | –
2 | COc1ccc(/C=C2\SC(=S)N(CCC(=O)Nc3ccc(C(=O)O)cc3)C2=O)cc1OC | – | – | 9.36 µM (active) | 2.75 µM (active)

Source: ChEMBL document CHEMBL1201862, “PubChem BioAssay data set” (2004)
